Publication PMC4126670 (ChemMedChem, 2014)
Converted amounts (≈) assume the structure as drawn. “Also recorded” adds a separate entry of the source. Where two headings read alike, the source gives them in different places.

Columns and labels:
M. tuberculosis Erdman [1] = conditions: mice, bacterial load in lung or spleen; cited from earlier work
M. tuberculosis [2] = assay: Antibacterial growth assay; type: cell-based, Mycobacterium tuberculosis
M. tuberculosis [3] = conditions: cited from earlier work
M. tuberculosis Erdman [4] = assay: Rapid M. tuberculosis animal model of efficacy; type: in vivo, Mycobacterium tuberculosis; conditions: for reduction of bacterial counts in the spleen: GKO C57BL/6 mice, IP, 10 days of treatment, compared to untreated controls; for efficacy in rapid murine model of TB infection: mice, IP delivery, bacterial CFUs in spleen
wild-type InhA [5] = target: T1, wild-type InhA (Mycobacterium tuberculosis, UniProt P9WGR1); assay: InhA enzyme inhibition, steady state kinetics; type: biochemical
wild-type InhA [6] = target: T1, wild-type InhA; assay: InhA progress curve assays; type: biochemical; conditions: for Slow-onset: Yes/No
wild-type InhA [7] = target: T1, wild-type InhA; conditions: cited from earlier work
[8] = Table 1, lowest concentration inhibiting visible growth
[9] = Table 1, slow-onset (time-dependent) inhibition of InhA

T1 sequence (P9WGR1 whole entry, looked up): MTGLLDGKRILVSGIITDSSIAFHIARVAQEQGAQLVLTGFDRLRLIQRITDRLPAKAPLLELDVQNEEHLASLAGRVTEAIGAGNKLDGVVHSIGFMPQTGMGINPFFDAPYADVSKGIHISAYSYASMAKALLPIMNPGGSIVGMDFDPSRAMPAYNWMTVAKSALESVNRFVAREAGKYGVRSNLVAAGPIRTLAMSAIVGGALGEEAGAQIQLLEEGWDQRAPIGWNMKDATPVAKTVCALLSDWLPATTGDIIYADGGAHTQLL

SMILES	Slow-onset (wild-type InhA [6]; [9])	MIC (M. tuberculosis [2]; Mycobacterium tuberculosis)	IC50 (wild-type InhA [5])	also measured
CCCCCCc1ccc(Oc2ccccc2)c(O)c1 [PT004]				efficacy in rapid murine model of TB infection (M. tuberculosis Erdman [1]): failed to observe a significant reduction in bacterial load; also recorded: did not show efficacy; also recorded: did not significantly reduce the bacterial load; also recorded: does not demonstrate efficacy; also recorded: lack of efficacy; MIC (M. tuberculosis [2]; [8]): 2.1 mg/L (≈ 7.77 µM); MIC (M. tuberculosis [2]; Table 2): 2.1 ± 0.9 mg/L (≈ 7.77 µM); bacterial load in rapid macrophage model of TB infection (M. tuberculosis [3]): had efficacy in a macrophage TB assay; also recorded: reduced the bacterial load
CCCCCCc1ccc(Oc2ccccc2[N+](=O)[O-])c(O)c1 [PT010]				MIC (M. tuberculosis [2]; [8]): 12.50 mg/L (≈ 39.6 µM)
CCCCCCc1ccc(Oc2ccccc2N)c(O)c1 [PT013]				MIC (M. tuberculosis [2]; [8]): 3.13 mg/L (≈ 11 µM)
CCCCCCc1ccc(Oc2ccccc2C)c(O)c1 [PT070]	slow onset and Yes			reduction of bacterial counts in the spleen (M. tuberculosis Erdman [4]): 0.57 ± 0.26 log10; efficacy in rapid murine model of TB infection (M. tuberculosis Erdman [4]): demonstrated efficacy; IC50 (wild-type InhA [5]; Table 1, enzyme concentration 100 nM): 50.7 ± 4 nM; Ki (wild-type InhA [6]; Table 1): 0.044 ± 0.005 nM; residence time (wild-type InhA [6]; Table 1): 24 ± 2 min; MIC (M. tuberculosis [2]; [8]): 3.125 mg/L (≈ 11 µM); MIC (M. tuberculosis [2]; Table 2): 3.125 mg/L (≈ 11 µM); residence time on InhA (wild-type InhA [7]): 24 min
CCCCCCc1ccc(Oc2ccccn2)c(O)c1 [PT077]				MIC (M. tuberculosis [2]; Table 3): 3.13 mg/L (≈ 11.5 µM)
CCCCCCc1ccc(Oc2ccccc2Cl)c(O)c1 [PT091, 2-(2-Chlorophenoxy)-5-hexylphenol]	slow onset and Yes	1.56 mg/L (≈ 5.12 µM)		reduction of bacterial counts in the spleen (M. tuberculosis Erdman [4]): 0.69 ± 0.22 log10; efficacy in rapid murine model of TB infection (M. tuberculosis Erdman [4]): demonstrated efficacy; residence time (wild-type InhA [6]): 21 ± 3 min
CCCCCCc1ccc(Oc2ccccc2Br)c(O)c1 [PT092, 2-(2-Bromophenoxy)-5-hexylphenol]	Yes	3.12 mg/L (≈ 8.95 µM)		residence time (wild-type InhA [6]): 30 ± 3 min
CCCCCCc1ccc(Oc2ccccc2C(F)(F)F)c(O)c1 [PT095, 5-Hexyl-2-(2-(trifluoromethyl)phenoxy)phenol]	No	50 mg/L (≈ 148 µM)	29.7 ± 1.2 nM	
CCCCCCc1ccc(Oc2ccccc2I)c(O)c1 [PT096, 5-Hexyl-2-(2-iodophenoxy)phenol]	No	25 mg/L (≈ 63.1 µM)	44.6 ± 7.5 nM	Ki (wild-type InhA [6]): 3.72 ± 5.13 nM
CCCCCCc1ccc(Oc2ccc([N+](=O)[O-])cc2C)c(O)c1 [PT107, 5-Hexyl-2-(2-methyl-4-nitrophenoxy)phenol]		6.25 mg/L (≈ 19 µM)	50 ± 5 nM	Ki (wild-type InhA [6]): 0.13 ± 0.03 nM
CCCCCCc1ccc(Oc2c(C)cccc2C)c(O)c1 [PT108, 2-(2,6-Dimethylphenoxy)-5-hexylphenol]		100 mg/L (≈ 335 µM)	1570 ± 200 nM	
CCCCCCc1ccc(Oc2c(Cl)cccc2Cl)c(O)c1 [PT109, 2-(2,6-Dichlorophenoxy)-5-hexylphenol]		25 mg/L (≈ 73.7 µM)	86 ± 6 nM	
CCCCCCc1ccc(Oc2c(C)cccc2N)c(O)c1 [PT110, 2-(2-Amino-6-methylphenoxy)-5-hexylphenol]		> 100 mg/L		MIC (M. tuberculosis [2]; Table 2): total loss
CCCCCCc1ccc(Oc2c(F)cccc2C#N)c(O)c1 [PT111, 3-Fluoro-2-(4-hexyl-2-hydroxyphenoxy) benzonitrile]		25 mg/L (≈ 79.8 µM)	100 ± 9 nM	
CCCCCCc1ccc(Oc2cnccc2N)c(O)c1 [PT112, 2-((4-Aminopyridin-3-yl)oxy)-5-hexylphenol]		50 mg/L (≈ 175 µM)	69000 ± 700 nM	fold increase in IC50 value, amino group compared to fluorine group (wild-type InhA [5]; PT013 vs. PT113, PT112 vs. PT161): 1700 fold; fold difference in IC50 value between PT134 and PT112 (wild-type InhA [5]; PT134 (2'- and 4'-N) vs 4'-N analogue PT112): 300 fold
CCCCCCc1ccc(Oc2ccccc2F)c(O)c1 [PT113, 2-(2-Fluorophenoxy)-5-hexylphenol]	Yes	1.56 mg/L (≈ 5.41 µM)	12.1 ± 4.8 nM	Ki (wild-type InhA [6]): 0.09 ± 0.02 nM; residence time (wild-type InhA [6]): 9 ± 3 min
CCCCCCc1ccc(Oc2ccccc2O)c(O)c1 [PT114, 5-Hexyl-2-(2-hydroxyphenoxy)phenol]	No	12.5 mg/L (≈ 43.6 µM)	48 ± 3 nM	Ki (wild-type InhA [6]): 15.9 ± 3.7 nM
CCCCCCc1ccc(Oc2cnccc2C#N)c(O)c1 [PT115, 3-(4-Hexyl-2-hydroxyphenoxy)isonicotinonitrile]		12.5 mg/L (≈ 42.2 µM)	891 ± 106 nM	residence time (wild-type InhA [6]): > 20 min; Slow-onset (wild-type InhA [6]; Table 3): Yes
CCCCCCc1ccc(Oc2cnccc2C(=O)O)c(O)c1 [PT116, 3-(4-Hexyl-2-hydroxyphenoxy)isonicotinic acid]		25 mg/L (≈ 79.3 µM)	> 12000 nM	
CCCCCCc1ccc(Oc2ccccc2C#N)c(O)c1 [PT119, 2-(4-Hexyl-2-hydroxyphenoxy)benzonitrile]	Yes	2.5 mg/L (≈ 8.46 µM)		residence time (wild-type InhA [6]): 80 ± 12 min; fold reduction of binding affinity compared to PT070 (wild-type InhA [6]; ratio of Ki): ~ 50 fold
CCCCCCc1ccc(Oc2c(F)cccc2Cl)c(O)c1 [PT133, 2-(2-Chloro-6-fluorophenoxy)-5-hexylphenol]		25 mg/L (≈ 77.4 µM)	79.7 ± 24.4 nM	
CCCCCCc1ccc(Oc2cncnc2N)c(O)c1 [PT134, 2-((4-Aminopyrimidin-5-yl)oxy)-5-hexylphenol]		3.12 mg/L (≈ 10.9 µM)	239 ± 46.8 nM	
CCCCCCc1ccc(Oc2cccnc2F)c(O)c1 [PT161, 2-((2-Fluoropyridin-3-yl)oxy)-5-hexylphenol]		0.312 mg/L (≈ 1.08 µM)	40 ± 20 nM	Slow-onset (wild-type InhA [6]; Table 3): slow-onset inhibition and Yes
CCCCCCc1ccc(Oc2cccnc2C#N)c(O)c1 [PT164, 3-(4-Hexyl-2-hydroxyphenoxy)picolinonitrile]		< 0.39 mg/L	308 ± 4.2 nM	Slow-onset (wild-type InhA [6]; Table 3): slow-onset inhibition and Yes
